In test [1] the test system is Embryonic rat neurons. The test is described as follows: Neuronal survival after RAC-conditioned media (ApoTox-Glo Triplex Assay). Type of test: cell-based. From the text: Mice were handled in accordance with principles and guidelines established by the “Guide for the Care and Use of Laboratory Animals” and overseen by the BioAge Lab's Institutional Animal Care and Use Committee (IACUC). Mouse primary astrocytes were isolated and cultured in 0.01% poly-L-lysine coated 6- or 12-well tissue culture plates at 200,000 or 120,000 cells/well, respectively, with astrocyte growth media as previously described in (Lundquist et al. 2022. Knockdown of Astrocytic Monocarboxylate Transporter 4 in the Motor Cortex Leads to Loss of Dendritic Spines and a Deficit in Motor Learning. Mol Neurobiol 59, 1002-1017). Embryonic rat neurons were purchased from ScienCell (Cat. #R1550) and cultured in neuronal media (ScienCell, Cat. #1521) per manufacturer's protocol, with slight modifications. Briefly, neurons were thawed and resuspended in neuronal media with the addition of 1 μg laminin (Sigma, Cat. #L2020) per 1 mL culture media, then plated in 0.01% poly-L-lysine coated 96-well tissue culture plates at 60,000 cells/well. […]
For analysis of neuronal survival, culture media was collected after RAC treatment and added directly to rat neurons (previously described above) for 24 hours. After exposure, neuronal viability was assessed with the ApoTox-Glo Triplex Assay according to manufacturer's protocol (Promega, Cat. #G6320). […]

The subject of test [2] is apelin receptor (APJ) signaling in astrocytes. Briefly: Western blot of APJ, p-AKT and t-AKT in astrocytes. Type of test: cell-based, mouse. How it is done: To stimulate astrocytes into a reactive state found in aging and neurodegenerative diseases per previous publications (Liddelow et al., 2017; Barbar et al., 2020), a combination of the cytokines TNF-α and IL-1α, and complement factor C1q, were added at 30 ng/mL, 3 ng/mL, and 400 ng/mL, respectively, into astrocyte culture media to make ‘reactive astrocyte cocktail’ (RAC) media. Astrocytes were cultured in RAC media for 24 hours, with or without various concentrations of BGE-105 (10 nM, 50 nM, 250 nM final concentration), (Pyr^1)-Apelin-13 (50 nM; Bachem, Cat. #4029110), BAY-11-7082 (50 μM; Abcam, Cat. #ab141228) or equal volume of vehicle (0.01% DMSO in PBS) (hereafter referred to as ‘RAC treatment’). Cells in Groups 3-6 were treated with RAC for 24 hours, with or without the test compounds (n=4 per group). • Group 1: Control [CON] • Group 2: CON+BGE-105 (50 nM) [CON+105] • Group 3: Reactive control treated with RAC only [RAC] • Group 4: RAC+BGE-105 (50 nM) [RAC+105] • Group 5: RAC+Pyrm-Apelin-13 (50 nM) • Group 6: RAC+BAY-11-7082 (NF-κB inhibitor; 50 μM) [RAC+BAY]
Mice were handled in accordance with principles and guidelines established by the “Guide for the Care and Use of Laboratory Animals” and overseen by the BioAge Lab's Institutional Animal Care and Use Committee (IACUC). Mouse primary astrocytes were isolated and cultured in 0.01% poly-L-lysine coated 6- or 12-well tissue culture plates at 200,000 or 120,000 cells/well, respectively, with astrocyte growth media as previously described in (Lundquist et al. 2022. Knockdown of Astrocytic Monocarboxylate Transporter 4 in the Motor Cortex Leads to Loss of Dendritic Spines and a Deficit in Motor Learning. Mol Neurobiol 59, 1002-1017). […]
For analysis of astrocyte protein expression, cells were washed after RAC treatment with PBS and lysed with Neuronal Protein Extraction Reagent (Thermo Scientific, Cat. #87792), centrifuged to pellet debris, and supernatant was transferred to a new tube. Total protein concentration was measured by BCA protein assay (Thermo Scientific, Cat. #PI23227).

The test system of test [3] is wildtype motor neurons. Briefly: Neurons exposed to SOD1^G93A astrocyte-conditioned media or co-cultured with SOD1^G93A astrocytes. The test is classed as cell-based, mouse. How it is done: This study conducts co-culture experiments using SOD1^G93A astrocytes and wildtype motor neurons to determine effects of apelin signaling on rescue of neuronal survival and function. Co-culture experiments are conducted by measuring viability, neuronal homeostasis, and morphological endpoints.
Neurons are isolated from mouse spinal cords as previously described in Example 12 above. Non-astrocytic flowthrough following column-based cell isolation (MACS) are collected and cultured in serum-free, neuron-selective media in 12- or 96-well plates for at least 14 days before experimentation. For specific selection of spinal cord motor neurons, wildtype C57BL/6J mouse PNDO or adult spinal cords are processed using published methods (Beaudet, 2015).
Neurons are cultured for at least 14 days before the start of experimentation. First, ACM from wildtype or SOD astrocytes exposed to 250 nM BGE-105 (or vehicle) are added to neurons seeded in 96 well plates for 6, 12, 24, or 48 hours followed by analysis of neuronal survival using the ApoTox-Glo Triplex kit (Promega) to determine optimal exposure time. […]

The mark [4] stands for this setting: RAC+BGE-105 [50 nM] versus CON and RAC.

Turning to `COc1cccc(OC)c1-n1c(NS(=O)(=O)[C@@H](C)[C@H](C)c2ncc(C)cn2)nnc1-c1cncc(C)c1` [BGE-105, (2S,3R)—N-(4-(2,6-dimethoxyphenyl)-5-(5-methyl-3-pyridinyl)-4H-1,2,4-triazol-3-yl)-3-(5-methyl-2-pyrimidinyl)-2-butanesulfonamide], the “cell viability relative to RAC, exogenous BGE-105” value in test [1] (RAC+ex105 [50 nM], added directly to neurons in addition to the toxic RAC media) was “did not provide statistical change”. The “increase of cellular viability as compared to RAC” value in test [1] (media of astrocytes treated with RAC+BGE105 [250 nM], added to neurons 24 hours) is listed as “about 30%”. The “increase of p-AKT expression level, as compared to t-AKT, normalized with β-actin” value in test [2] (RAC+BGE-105 [50 nM]) is reported as “about 2 folds”. Besides, in test [2] (setting [4]), the “APJ protein expression normalized with β-actin” value is reported as “No significant fold change” and the t-AKT expression result is recorded as “remained comparable”. For the same compound, in test [3] (pretreatment of SOD1^G93A astrocytes with 250 nM BGE-105), the “neuron cell death caused by SOD1^G93A ACM” value was “attenuated”. The “synaptic protein expression and neuronal structural integrity” value in test [3] (wildtype neurons cultured with SOD1^G93A astrocytes, 250 nM BGE-105) was “preserves synaptic protein expression and neuronal structural integrity”.

The values are drawn from patent US20240041878A1, “APELIN RECEPTOR MODULATORS FOR TREATMENT OF A DISORDER OR DISEASE ASSOCIATED WITH BBB PERMEABILITY” (BioAge Labs, Inc., priority 2022, published 2024).
